Results on eight molecules are retold here after patent US20210087206A1, “MACROCYCLIC KINASE INHIBITORS AND THEIR USE” (TURNING POINT THERAPEUTICS, INC., priority 2017, published 2021).

A value given as a limit tells only on which side of the number the result lay.

The target in data set [1] is T1, ALK (G1202R) (Homo sapiens, UniProt Q9UM73, G1202R).
T1 construct: purchased Reaction Biology Corporation
Description: Biochemical kinase assay (Reaction Biology, 33P ATP). Particulars: 10 μM ATP. As to the method:
(§1) Biochemical Kinase Assay Method
(§2) The biochemical kinase assay was performed at Reaction Biology Corporation (www.reactionbiology.com, Malvern, Pa.) following the procedures described in the reference (Anastassiadis T, et al Nat Biotechnol. 2011, 29, 1039). Specific kinase/substrate pairs along with required cofactors were prepared in reaction buffer; 20 mM Hepes pH 7.5, 10 mM MgC2, 1 mM EGTA, 0.02% Brij35, 0.02 mg/ml BSA, 0.1 mM Na3VO4, 2 mM DTT, 1% DMSO. Compounds were delivered into the reaction, followed ˜20 min later by addition of a mixture of ATP (Sigma, St. Louis Mo.) and ^33P ATP (Perkin Elmer, Waltham Mass.) to a final concentration of 10 μM. Reactions were carried out at room temperature for 120 min, followed by spotting of the reactions onto P81 ion exchange filter paper (Whatman Inc., Piscataway, N.J.). Unbound phosphate was removed by extensive washing of filters in 0.75% phosphoric acid. […] IC50 values and curve fits were obtained using Prism (GraphPad Software).

Data set [2] addresses T2, ALK (Homo sapiens, UniProt Q9UM73).
T2 construct: purchased Reaction Biology Corporation
The data set is described as above. Particulars: 10 μM ATP. As to the method: as §1, §2

Data set [3] addresses T3, ALK (L1196M) (Homo sapiens, UniProt Q9UM73, L1196M).
T3 construct: purchased Reaction Biology Corporation
Described as above. Particulars: 10 μM ATP. As to the method: as §1, §2

Data set [4] concerns the target T4, FGFR1 (Homo sapiens, UniProt P11362).
T4 construct: purchased Reaction Biology Corporation
Described as above. Particulars: 10 μM ATP. As to the method: as §1, §2

Data set [5] addresses T5, FGFR1(V561M) (Homo sapiens, UniProt P11362, V561M).
T5 construct: purchased Reaction Biology Corporation
The description is as above. Particulars: 10 μM ATP. As to the method:
as §1, §2

Data set [6] deals with T6, FGFR2 (Homo sapiens, UniProt P21802).
T6 construct: purchased Reaction Biology Corporation
The description is as above. Particulars: 10 μM ATP. As to the method: as §1, §2

The target in data set [7] is T7, FGFR3 (Homo sapiens, UniProt P22607).
T7 construct: purchased Reaction Biology Corporation
Described as above. Particulars: 10 μM ATP. As to the method:
as §1, §2

Data set [8] addresses T8, FGFR4 (Homo sapiens, UniProt P22455).
T8 construct: purchased Reaction Biology Corporation
The data set is described as above. Particulars: 10 μM ATP. The protocol: as §1, §2

The target of data set [9] is T9, ROS1 (G2032R) (Homo sapiens, UniProt P08922, G2032R).
T9 construct: purchased Reaction Biology Corporation
The description is as above. Particulars: 10 μM ATP. As to the method:
as §1, §2

Data set [10] has as its target T10, ROS1 (Homo sapiens, UniProt P08922).
T10 construct: purchased Reaction Biology Corporation
The data set is described as above. Particulars: 10 μM ATP. As to the method: as §1, §2

Data set [11] deals with T11, BaF3 EML4-ALK (Homo sapiens, UniProt Q9UM73).
T11 construct: The EML4-ALK gene (variant 1) was synthesized at GenScript and cloned into pCDH-CMV-MCS-EF1-Puro plasmid (System Biosciences, Inc); fused on or other part: EML4 N-terminal part (variant 1: exons 1-13, with the coiled-coil that oligomerises the fusion) fused to the intracellular part of ALK, which contains the kinase domain; Q9HC35 (Echinoderm microtubule-associated protein-like 4)
The experiment in a line: Cell proliferation assay (CellTiter-Glo). Type of data set: cell-based. Particulars: anti-cell proliferation, 72 hours. The procedure, abridged:
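Ba/F3 cells were lentivirally transduced with EML4-ALK variant 1 and selected for puromycin resistance and IL-3-independent growth. Proliferation was measured by CellTiter-Glo ATP luminescence to give IC50.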

Data set [12] deals with KG-1 cell (OP2-FGFR1). Description: Cell proliferation assay (CellTiter-Glo). Type of data set: cell-based. Particulars: Homo sapiens, anti-cell proliferation, 72 hours. The gist of the method:
(§3)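 Cells seeded 24 h, then exposed to compounds for 72 h at 37° C., 5% CO2. Proliferation read by CellTiter-Glo luminescent ATP detection; IC50 from dose-response fits.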
Background: ATP-based viability assays read luminescence as a measure of living cells.

The test system of data set [13] is KM12 (TPM3-TRKA). The experiment in a line: Cell proliferation assay (CellTiter-Glo). Type of data set: cell-based. Particulars: Homo sapiens, anti-cell proliferation, 72 hours. The procedure, abridged: as §3
The conditions of data set [14]: amide bond; 13-membered ring; 3 steps.

T11 sequence (Q9UM73 whole entry, stated change not applied, the tested form may be a part): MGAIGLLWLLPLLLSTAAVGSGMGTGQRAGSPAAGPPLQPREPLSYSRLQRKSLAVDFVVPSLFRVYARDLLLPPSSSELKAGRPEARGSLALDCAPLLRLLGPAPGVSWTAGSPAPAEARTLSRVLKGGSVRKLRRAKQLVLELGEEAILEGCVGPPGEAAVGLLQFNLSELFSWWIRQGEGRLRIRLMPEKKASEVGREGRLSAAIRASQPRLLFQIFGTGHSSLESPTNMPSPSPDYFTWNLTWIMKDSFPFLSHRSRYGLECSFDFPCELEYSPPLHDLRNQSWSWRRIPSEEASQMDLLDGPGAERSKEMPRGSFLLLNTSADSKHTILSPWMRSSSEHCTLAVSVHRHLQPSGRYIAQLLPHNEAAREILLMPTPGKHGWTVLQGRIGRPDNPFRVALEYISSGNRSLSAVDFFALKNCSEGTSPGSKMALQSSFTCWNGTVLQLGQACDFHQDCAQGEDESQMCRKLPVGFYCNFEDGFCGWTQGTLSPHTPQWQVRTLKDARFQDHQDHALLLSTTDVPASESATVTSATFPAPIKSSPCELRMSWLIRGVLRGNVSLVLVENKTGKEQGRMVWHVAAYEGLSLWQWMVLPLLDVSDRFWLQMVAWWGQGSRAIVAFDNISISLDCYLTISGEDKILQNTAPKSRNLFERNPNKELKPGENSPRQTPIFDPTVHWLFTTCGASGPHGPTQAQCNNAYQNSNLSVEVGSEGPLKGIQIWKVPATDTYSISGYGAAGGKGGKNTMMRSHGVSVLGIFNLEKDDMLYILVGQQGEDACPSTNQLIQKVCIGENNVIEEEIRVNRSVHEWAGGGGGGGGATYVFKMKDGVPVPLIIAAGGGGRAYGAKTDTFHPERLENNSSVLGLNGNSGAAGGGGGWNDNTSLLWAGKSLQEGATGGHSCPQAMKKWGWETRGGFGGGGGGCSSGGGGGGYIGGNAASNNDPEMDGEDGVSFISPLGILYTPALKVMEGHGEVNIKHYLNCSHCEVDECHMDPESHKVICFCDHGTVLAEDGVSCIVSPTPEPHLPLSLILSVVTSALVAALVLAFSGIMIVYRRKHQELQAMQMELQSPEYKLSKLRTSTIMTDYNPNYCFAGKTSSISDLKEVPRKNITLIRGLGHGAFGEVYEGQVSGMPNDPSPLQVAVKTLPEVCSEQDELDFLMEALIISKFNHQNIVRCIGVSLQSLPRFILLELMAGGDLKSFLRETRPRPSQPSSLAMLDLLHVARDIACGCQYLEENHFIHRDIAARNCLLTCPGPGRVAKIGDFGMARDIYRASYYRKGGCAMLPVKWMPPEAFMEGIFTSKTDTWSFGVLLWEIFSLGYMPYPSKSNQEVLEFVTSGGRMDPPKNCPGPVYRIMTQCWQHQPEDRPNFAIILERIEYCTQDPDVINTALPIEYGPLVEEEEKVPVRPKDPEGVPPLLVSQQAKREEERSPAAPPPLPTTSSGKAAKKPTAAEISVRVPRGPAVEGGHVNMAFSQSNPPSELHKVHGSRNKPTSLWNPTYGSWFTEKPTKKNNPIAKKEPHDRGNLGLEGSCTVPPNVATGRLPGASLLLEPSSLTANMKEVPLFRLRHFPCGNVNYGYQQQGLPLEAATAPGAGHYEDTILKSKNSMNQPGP
T9 sequence (P08922 28-2347 G2032R): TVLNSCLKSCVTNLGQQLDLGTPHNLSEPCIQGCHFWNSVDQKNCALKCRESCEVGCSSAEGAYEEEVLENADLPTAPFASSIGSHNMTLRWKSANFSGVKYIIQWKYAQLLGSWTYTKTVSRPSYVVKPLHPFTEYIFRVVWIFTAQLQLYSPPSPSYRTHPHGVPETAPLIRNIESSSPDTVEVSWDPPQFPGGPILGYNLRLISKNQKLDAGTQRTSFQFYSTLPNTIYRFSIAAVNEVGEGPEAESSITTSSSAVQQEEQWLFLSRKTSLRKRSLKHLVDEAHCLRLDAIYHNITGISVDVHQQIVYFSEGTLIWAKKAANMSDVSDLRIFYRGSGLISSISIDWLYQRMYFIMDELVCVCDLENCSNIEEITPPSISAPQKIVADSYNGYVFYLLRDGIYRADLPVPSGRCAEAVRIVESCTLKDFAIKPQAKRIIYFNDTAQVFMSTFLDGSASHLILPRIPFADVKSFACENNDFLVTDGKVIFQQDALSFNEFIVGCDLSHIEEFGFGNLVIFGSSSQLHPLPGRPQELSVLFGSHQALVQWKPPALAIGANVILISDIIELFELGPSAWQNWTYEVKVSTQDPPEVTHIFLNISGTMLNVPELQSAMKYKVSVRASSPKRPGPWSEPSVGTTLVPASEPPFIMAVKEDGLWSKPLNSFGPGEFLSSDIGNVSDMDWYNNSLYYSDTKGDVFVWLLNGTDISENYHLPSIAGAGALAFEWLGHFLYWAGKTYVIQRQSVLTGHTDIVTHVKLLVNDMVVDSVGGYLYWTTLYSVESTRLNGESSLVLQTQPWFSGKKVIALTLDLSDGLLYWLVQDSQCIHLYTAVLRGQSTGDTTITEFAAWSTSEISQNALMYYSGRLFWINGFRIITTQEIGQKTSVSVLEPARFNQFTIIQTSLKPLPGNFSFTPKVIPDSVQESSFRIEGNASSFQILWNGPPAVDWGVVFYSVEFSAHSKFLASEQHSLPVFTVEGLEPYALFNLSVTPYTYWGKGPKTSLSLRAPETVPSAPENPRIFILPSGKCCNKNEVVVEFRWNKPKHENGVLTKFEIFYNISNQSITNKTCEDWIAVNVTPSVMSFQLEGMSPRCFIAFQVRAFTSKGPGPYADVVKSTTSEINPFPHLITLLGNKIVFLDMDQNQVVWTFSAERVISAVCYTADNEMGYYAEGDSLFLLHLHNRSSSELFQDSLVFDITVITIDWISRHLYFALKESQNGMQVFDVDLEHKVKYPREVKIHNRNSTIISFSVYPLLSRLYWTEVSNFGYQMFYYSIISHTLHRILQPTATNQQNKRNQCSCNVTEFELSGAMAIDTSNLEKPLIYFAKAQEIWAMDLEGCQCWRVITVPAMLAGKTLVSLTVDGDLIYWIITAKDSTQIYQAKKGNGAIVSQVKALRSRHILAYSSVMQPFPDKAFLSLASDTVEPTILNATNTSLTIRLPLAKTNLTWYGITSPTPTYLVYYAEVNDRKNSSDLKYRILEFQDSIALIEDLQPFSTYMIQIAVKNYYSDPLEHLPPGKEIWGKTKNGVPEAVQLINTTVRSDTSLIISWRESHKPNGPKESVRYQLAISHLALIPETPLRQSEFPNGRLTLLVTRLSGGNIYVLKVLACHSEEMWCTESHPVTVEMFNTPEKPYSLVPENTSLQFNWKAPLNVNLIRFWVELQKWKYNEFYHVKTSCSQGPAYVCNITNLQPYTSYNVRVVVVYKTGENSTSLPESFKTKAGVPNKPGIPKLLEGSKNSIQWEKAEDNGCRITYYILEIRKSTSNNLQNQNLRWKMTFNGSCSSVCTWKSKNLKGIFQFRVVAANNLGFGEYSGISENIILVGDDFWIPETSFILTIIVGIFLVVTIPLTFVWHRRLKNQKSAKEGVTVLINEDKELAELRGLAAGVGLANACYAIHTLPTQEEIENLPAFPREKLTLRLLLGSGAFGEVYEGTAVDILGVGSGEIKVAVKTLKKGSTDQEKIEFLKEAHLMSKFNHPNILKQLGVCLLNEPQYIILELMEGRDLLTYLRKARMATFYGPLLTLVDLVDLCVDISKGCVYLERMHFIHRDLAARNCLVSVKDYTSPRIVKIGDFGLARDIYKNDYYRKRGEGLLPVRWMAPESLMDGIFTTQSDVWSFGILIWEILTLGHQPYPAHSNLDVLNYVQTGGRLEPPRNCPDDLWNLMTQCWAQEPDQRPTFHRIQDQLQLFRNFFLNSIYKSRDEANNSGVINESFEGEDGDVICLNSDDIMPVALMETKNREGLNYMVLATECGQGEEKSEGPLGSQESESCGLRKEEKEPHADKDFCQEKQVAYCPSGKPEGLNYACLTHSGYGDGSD
T4 sequence (P11362 22-822): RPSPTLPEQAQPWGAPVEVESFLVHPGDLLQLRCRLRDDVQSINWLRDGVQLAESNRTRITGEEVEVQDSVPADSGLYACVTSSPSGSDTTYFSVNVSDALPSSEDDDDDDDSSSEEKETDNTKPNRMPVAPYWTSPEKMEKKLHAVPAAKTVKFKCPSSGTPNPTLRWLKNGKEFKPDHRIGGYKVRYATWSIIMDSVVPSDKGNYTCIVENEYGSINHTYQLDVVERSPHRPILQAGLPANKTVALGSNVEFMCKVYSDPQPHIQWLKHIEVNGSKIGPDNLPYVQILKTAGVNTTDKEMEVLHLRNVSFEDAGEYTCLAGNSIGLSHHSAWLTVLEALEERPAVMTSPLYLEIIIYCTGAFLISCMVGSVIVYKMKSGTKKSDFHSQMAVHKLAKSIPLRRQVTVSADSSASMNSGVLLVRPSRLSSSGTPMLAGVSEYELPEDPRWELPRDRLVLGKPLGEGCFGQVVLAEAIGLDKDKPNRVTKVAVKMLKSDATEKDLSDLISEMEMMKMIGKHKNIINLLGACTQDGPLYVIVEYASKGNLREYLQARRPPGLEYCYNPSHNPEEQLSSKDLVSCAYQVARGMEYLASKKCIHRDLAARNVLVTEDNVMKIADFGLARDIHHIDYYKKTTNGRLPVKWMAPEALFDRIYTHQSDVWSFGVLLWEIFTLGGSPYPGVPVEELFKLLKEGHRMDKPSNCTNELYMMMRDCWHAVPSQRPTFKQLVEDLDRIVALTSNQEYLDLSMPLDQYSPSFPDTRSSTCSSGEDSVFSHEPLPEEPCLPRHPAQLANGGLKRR
T5 sequence (P11362 22-822 V561M): as the sequence (P11362 22-822) above, with V540M counted along it
T10 sequence (P08922 28-2347): as the sequence (P08922 28-2347 G2032R) above, with R2005G counted along it

In the case of `C[C@@H]1COc2cn3ncc4c3nc2N1Cc1cc(F)cc(F)c1O[C@@H](C)CNC4=O` [Compound 7, (4R,12S)-8,10-difluoro-4,12-dimethyl-3,4,13,14-tetrahydro-6H-18,1-(metheno)[1,4]oxazino[3,4-i]pyrazolo[4,3-f][1,4,8,10]benzoxatriazacyclotridecin-15(12H)-one], the IC50 in data set [1] turned out to be 1.25 nM; in data set [2], 0.853 nM; in data set [3] it was 0.358 nM; in data set [4] it was 53 nM; in data set [5] it was 137 nM; in data set [6], 14.7 nM. The IC50 in data set [7] is 30.5 nM; in data set [8], 88.4 nM; in [9], 0.678 nM; in data set [10], 0.111 nM; in data set [11], 18.6 nM; in data set [12] it was 145 nM. For the same molecule, 0.2 nM corresponded to half-maximal inhibition in data set [13] (IC50).

On to `C[C@@H]1COc2cn3ncc4c3nc2N1Cc1cc(F)cnc1OCCC1(CCC1)NC4=O` [Compound 96, (16′R)-12′-fluoro-16′-methyl-4′H,5′H,7′H,8′H,14′H,16′H,17′H-spiro[cyclobutane-1,6′-[9,18]-dioxa[1,2,5,10,15,20]hexaaza-[1,19](metheno)[1,4]oxazino-[4,3-e]pyrazolo[3,4-h]pyrido[2,3-b][1,5,7,11]oxatriazacyclotetra-decin]-4′-one], for which the IC50 was 349 nM in data set [11], 500 nM in data set [12] and less than 0.2 nM in data set [13].

For `C[C@@H]1COc2cn3ncc4c3nc2N1Cc1cc(F)cnc1OC[C@@H](C(F)F)NC4=O` [Compound 97, (4R,13S)-13-(difluoromethyl)-8-fluoro-4-methyl-3,4,13,14-tetra-hydro-6H-18,1-(metheno)[1,4]-oxazino[3,4-i]pyrazolo[4,3-f]pyrido[3,2-l][1,4,8,10]oxatriaza-cyclotridecin-15(12H)-one], the IC50 in [11] was 20.2 nM; in data set [12], 19.9 nM; in [13], less than 0.2 nM.

In the case of `C[C@@H]1COc2cn3ncc4c3nc2N1Cc1cc(F)cnc1O[C@H](CO)CNC4=O` [Compound 98, (4R,12S)-8-fluoro-12-(hydroxymethyl)-4-methyl-3,4,13,14-tetrahydro-6H-18,1-(metheno)[1,4]oxazino[3,4-i]pyrazolo[4,3-f]pyrido[3,2-1][1,4,8,10]oxatriazacyclotridecin-15(12H)-one], the IC50 in data set [11] amounted to 4000 nM; in data set [12], 3000 nM; in data set [13] it was 13.3 nM.

Consider `C[C@@H]1COc2cn3ncc4c3nc2N(Cc2cc(F)cnc2OCCC(C)(C)NC4=O)C1` [Compound 99, (17S)-12-fluoro-6,6,17-trimethyl-5,6,7,8,17,18-hexahydro-4H,14H,16H-1,20-(metheno)[1,4]oxazepino[4,3-e]pyrazolo[3,4-h]pyrido[2,3-b][1,5,7,11]oxatriazacyclotetradecin-4-one], for which the IC50 in [11] was 2000 nM; in data set [12], 1370 nM; in data set [13], 63.7 nM.

For the molecule `C[C@@H]1COc2cn3ncc4c3nc2N(Cc2cc(F)cnc2OC[C@@H](C)CNC4=O)C1` [Compound 100, (7S,17S)-12-fluoro-7,17-dimethyl-5,6,7,8,17,18-hexahydro-4H,14H,16H-1,20-(metheno)[1,4]oxazepino-[4,3-e]pyrazolo[3,4-h]pyrido-[2,3-b][1,5,7,11]oxatriaza-cyclotetradecin-4-one], the IC50 came to 2500 nM in data set [11], 2800 nM in [12] and 72.8 nM in data set [13].

Take “(4R,13R)-8-fluoro-4,13-dimethyl-3,4,13,14-tetrahydro-6H-18,1-(metheno)[1,4]oxazino[3,4-i]pyrazolo[4,3-f]pyrido[3,2-l][1,4,8,10]oxatriazacyclotridecin-15(12H)-one”: the ring closure, isolated yield in data set [14] stood at 86%.

As to “(5R,13S)-9-fluoro-5,13-dimethyl-4,5,14,15-tetrahydro-3H,7H-19,1-(metheno)[1,4]oxazepino[3,4-i]pyrazolo[4,3-f]pyrido[3,2-l][1,4,8,10]oxatriazacyclotridecin-16(13H)-one”, in data set [14], the ring closure, isolated yield came out at 79%.

As a reminder, the IC50 is the concentration that gives 50% inhibition. High values mean lower potency, low ones higher potency.
